Reference: US8952024B2, “Herbicidal pyrimidone derivatives” (E I du Pont de Nemours and Company, priority 2009, dated 2015)

Each compound was assayed on green foxtail (Setaria viridis) (assay: Test B pre-/postemergence plant response). Details: Postemergence, 31 g ai/ha; 0 to 100 scale (0 no effect, 100 complete control).
Type: in vivo
In short: (§1)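 Seeds sown in loam–sand blend were treated preemergence, and plants at 2–18 cm (1- to 4-leaf stage) in peat-based medium were treated postemergence; compounds were formulated in non-phytotoxic solvent with surfactant. After 13–15 days in greenhouse, response was visually rated against controls, 0 (no effect) to 100 (complete control).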

Compound | Plant response rating, Foxtail, Green
Cc1cc(-n2c(-c3cccc(F)c3)ncc(C(=O)C3=C(O)CCCC3=O)c2=O)ccc1F [Compound 191] | 40

Same assay, conditions: Postemergence, 62 g ai/ha; scale 0 to 100 (0 no effect, 100 complete control)

Compound | Plant response rating, Foxtail, Green
Cc1cc(-n2c(-c3cccc(F)c3)ncc(C(=O)C3=C(O)CCCC3=O)c2=O)ccc1F [Compound 191] | 55

Same assay, conditions: Postemergence, 125 g ai/ha; scale 0 to 100 (0 no effect, 100 complete control)

Compound | Plant response rating, Foxtail, Green
Cc1cc(-n2c(-c3cccc(F)c3)ncc(C(=O)C3=C(O)CCCC3=O)c2=O)ccc1F [Compound 191] | 80

Same assay, conditions: Postemergence, 250 g ai/ha; scale 0 to 100 (0 no effect, 100 complete control); 13 to 15 days

Compound | Plant response rating, Foxtail, Green
Cc1cc(-n2c(-c3cccc(F)c3)ncc(C(=O)C3=C(O)CCCC3=O)c2=O)ccc1F [Compound 191] | 98

What follows are compounds tested on johnsongrass (Sorghum halepense) (assay: Test B pre-/postemergence plant response). Details: Postemergence, 31 g ai/ha; 0 to 100 scale (0 no effect, 100 complete control).
Type: in vivo
In short: as §1

Compound | Plant response rating, Johnsongrass
Cc1cc(-n2c(-c3cccc(F)c3)ncc(C(=O)C3=C(O)CCCC3=O)c2=O)ccc1F [Compound 191] | 70

Same assay, conditions: Postemergence, 62 g ai/ha; scale 0 to 100 (0 no effect, 100 complete control)

Compound | Plant response rating, Johnsongrass
Cc1cc(-n2c(-c3cccc(F)c3)ncc(C(=O)C3=C(O)CCCC3=O)c2=O)ccc1F [Compound 191] | 100

Same assay, conditions: Postemergence, 125 g ai/ha; scale 0 to 100 (0 no effect, 100 complete control)

Compound | Plant response rating, Johnsongrass
Cc1cc(-n2c(-c3cccc(F)c3)ncc(C(=O)C3=C(O)CCCC3=O)c2=O)ccc1F [Compound 191] | 100

Same assay, conditions: Postemergence, 250 g ai/ha; scale 0 to 100 (0 no effect, 100 complete control); 13 to 15 days

Compound | Plant response rating, Johnsongrass
Cc1cc(-n2c(-c3cccc(F)c3)ncc(C(=O)C3=C(O)CCCC3=O)c2=O)ccc1F [Compound 191] | 100

The compounds below were run on large crabgrass (Digitaria sanguinalis) (assay: Test B pre-/postemergence plant response). Details: Postemergence, 31 g ai/ha; 0 to 100 scale (0 no effect, 100 complete control).
Type: in vivo
In short: as §1

Compound | Plant response rating, Crabgrass, Large
Cc1cc(-n2c(-c3cccc(F)c3)ncc(C(=O)C3=C(O)CCCC3=O)c2=O)ccc1F [Compound 191] | 85

Same assay, conditions: Postemergence, 62 g ai/ha; scale 0 to 100 (0 no effect, 100 complete control)

Compound | Plant response rating, Crabgrass, Large
Cc1cc(-n2c(-c3cccc(F)c3)ncc(C(=O)C3=C(O)CCCC3=O)c2=O)ccc1F [Compound 191] | 100

Same assay, conditions: Postemergence, 125 g ai/ha; scale 0 to 100 (0 no effect, 100 complete control)

Compound | Plant response rating, Crabgrass, Large
Cc1cc(-n2c(-c3cccc(F)c3)ncc(C(=O)C3=C(O)CCCC3=O)c2=O)ccc1F [Compound 191] | 100

Same assay, conditions: Postemergence, 250 g ai/ha; scale 0 to 100 (0 no effect, 100 complete control); 13 to 15 days

Compound | Plant response rating, Crabgrass, Large
Cc1cc(-n2c(-c3cccc(F)c3)ncc(C(=O)C3=C(O)CCCC3=O)c2=O)ccc1F [Compound 191] | 100

These compounds were tested on morningglory (Ipomoea coccinea) (assay: Test B pre-/postemergence plant response). Details: Postemergence, 31 g ai/ha; 0 to 100 scale (0 no effect, 100 complete control).
Type: in vivo
In short: as §1

Compound | Plant response rating, Morningglory
Cc1cc(-n2c(-c3cccc(F)c3)ncc(C(=O)C3=C(O)CCCC3=O)c2=O)ccc1F [Compound 191] | 40

Same assay, conditions: Postemergence, 62 g ai/ha; scale 0 to 100 (0 no effect, 100 complete control)

Compound | Plant response rating, Morningglory
Cc1cc(-n2c(-c3cccc(F)c3)ncc(C(=O)C3=C(O)CCCC3=O)c2=O)ccc1F [Compound 191] | 65

Same assay, conditions: Postemergence, 125 g ai/ha; scale 0 to 100 (0 no effect, 100 complete control)

Compound | Plant response rating, Morningglory
Cc1cc(-n2c(-c3cccc(F)c3)ncc(C(=O)C3=C(O)CCCC3=O)c2=O)ccc1F [Compound 191] | 90

Same assay, conditions: Postemergence, 250 g ai/ha; scale 0 to 100 (0 no effect, 100 complete control); 13 to 15 days

Compound | Plant response rating, Morningglory
Cc1cc(-n2c(-c3cccc(F)c3)ncc(C(=O)C3=C(O)CCCC3=O)c2=O)ccc1F [Compound 191] | 100

What follows are compounds tested on woolly cupgrass (Eriochloa villosa) (assay: Test B pre-/postemergence plant response). Details: Postemergence, 31 g ai/ha; 0 to 100 scale (0 no effect, 100 complete control).
Type: in vivo
In short: as §1

Compound | Plant response rating, Cupgrass, Woolly
Cc1cc(-n2c(-c3cccc(F)c3)ncc(C(=O)C3=C(O)CCCC3=O)c2=O)ccc1F [Compound 191] | 85

Same assay, conditions: Postemergence, 62 g ai/ha; scale 0 to 100 (0 no effect, 100 complete control)

Compound | Plant response rating, Cupgrass, Woolly
Cc1cc(-n2c(-c3cccc(F)c3)ncc(C(=O)C3=C(O)CCCC3=O)c2=O)ccc1F [Compound 191] | 90

Same assay, conditions: Postemergence, 125 g ai/ha; scale 0 to 100 (0 no effect, 100 complete control)

Compound | Plant response rating, Cupgrass, Woolly
Cc1cc(-n2c(-c3cccc(F)c3)ncc(C(=O)C3=C(O)CCCC3=O)c2=O)ccc1F [Compound 191] | 90

Same assay, conditions: Postemergence, 250 g ai/ha; scale 0 to 100 (0 no effect, 100 complete control); 13 to 15 days

Compound | Plant response rating, Cupgrass, Woolly
Cc1cc(-n2c(-c3cccc(F)c3)ncc(C(=O)C3=C(O)CCCC3=O)c2=O)ccc1F [Compound 191] | 98

These compounds were tested on yellow nutsedge (Cyperus esculentus) (assay: Test B pre-/postemergence plant response). Details: Postemergence, 31 g ai/ha; 0 to 100 scale (0 no effect, 100 complete control).
Type: in vivo
In short: as §1

Compound | Plant response rating, Nutsedge, Yellow
Cc1cc(-n2c(-c3cccc(F)c3)ncc(C(=O)C3=C(O)CCCC3=O)c2=O)ccc1F [Compound 191] | 40

Same assay, conditions: Postemergence, 62 g ai/ha; scale 0 to 100 (0 no effect, 100 complete control)

Compound | Plant response rating, Nutsedge, Yellow
Cc1cc(-n2c(-c3cccc(F)c3)ncc(C(=O)C3=C(O)CCCC3=O)c2=O)ccc1F [Compound 191] | 40

Same assay, conditions: Postemergence, 125 g ai/ha; scale 0 to 100 (0 no effect, 100 complete control)

Compound | Plant response rating, Nutsedge, Yellow
Cc1cc(-n2c(-c3cccc(F)c3)ncc(C(=O)C3=C(O)CCCC3=O)c2=O)ccc1F [Compound 191] | 55

Same assay, conditions: Postemergence, 250 g ai/ha; scale 0 to 100 (0 no effect, 100 complete control); 13 to 15 days

Compound | Plant response rating, Nutsedge, Yellow
Cc1cc(-n2c(-c3cccc(F)c3)ncc(C(=O)C3=C(O)CCCC3=O)c2=O)ccc1F [Compound 191] | 70
